Data from ChEMBL document CHEMBL6092200, “Structure-guided inhibitor design targeting CntL provides the first chemical validation of the staphylopine metallophore system in bacterial metal acquisition” (Eur J Med Chem, 2024).
Calls of active or inactive are those of the source. No cut-off for these calls is given here.

How the values were obtained:
[1] = molecular target: T1, D-histidine 2-aminobutanoyltransferase (Staphylococcus aureus (strain Mu50 / ATCC 700699), UniProt A0A0H3JXA8); test: Inhibition of N-terminal his6-tagged Staphylococcus aureus ATCC 700699 CntL using SAM as substrate preincubated with compound for 10 mins followed by substrate addition and measured after 25 mins in presence of NADPH by microplate reader analysis
T1 sequence (A0A0H3JXA8 whole entry): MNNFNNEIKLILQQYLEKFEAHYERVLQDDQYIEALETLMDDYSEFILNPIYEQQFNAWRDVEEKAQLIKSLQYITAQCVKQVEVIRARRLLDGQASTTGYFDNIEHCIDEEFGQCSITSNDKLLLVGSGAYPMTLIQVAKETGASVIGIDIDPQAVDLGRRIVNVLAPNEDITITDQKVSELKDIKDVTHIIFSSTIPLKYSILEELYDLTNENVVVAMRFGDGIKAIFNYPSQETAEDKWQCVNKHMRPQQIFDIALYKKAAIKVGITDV

[2] = molecular target: T2, L-histidine 2-aminobutanoyltransferase (Pseudomonas aeruginosa) (UniProt Q9HUX4); test: Binding affinity to N-terminal his6-tagged Pseudomonas aeruginosa CntL assessed as change in enthalpy by ITC analysis
T2 sequence (whole entry): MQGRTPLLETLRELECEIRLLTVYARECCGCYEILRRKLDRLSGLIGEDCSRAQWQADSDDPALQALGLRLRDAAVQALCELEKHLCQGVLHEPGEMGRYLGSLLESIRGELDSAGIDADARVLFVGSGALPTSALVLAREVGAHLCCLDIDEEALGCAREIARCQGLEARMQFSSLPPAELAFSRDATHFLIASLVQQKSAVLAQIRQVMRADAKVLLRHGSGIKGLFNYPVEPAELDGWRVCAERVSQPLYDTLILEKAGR

[3] = molecular target: T3, D-histidine 2-aminobutanoyltransferase (Staphylococcus aureus (strain Mu50 / ATCC 700699)) (UniProt A0A0H3JXA8); test: Binding affinity to N-terminal his6-tagged Staphylococcus aureus ATCC 700699 CntL assessed as change in entropy by ITC analysis
T3 sequence (whole entry): T1 sequence (A0A0H3JXA8 whole entry)

[4] = molecular target: T4, L-histidine 2-aminobutanoyltransferase (Pseudomonas aeruginosa, UniProt Q9HUX4); test: Binding affinity to N-terminal his6-tagged Pseudomonas aeruginosa CntL assessed as dissociation constant by ITC analysis
T4 sequence (Q9HUX4 whole entry): T2 sequence (whole entry)

[5] = molecular target: T1, D-histidine 2-aminobutanoyltransferase; test: Binding affinity to N-terminal his6-tagged Staphylococcus aureus ATCC 700699 CntL assessed as dissociation constant by ITC analysis
[6] = molecular target: T3, D-histidine 2-aminobutanoyltransferase (Staphylococcus aureus (strain Mu50 / ATCC 700699)); test: Binding affinity to N-terminal his6-tagged Staphylococcus aureus ATCC 700699 CntL assessed as gibbs free energy change by ITC analysis
[7] = molecular target: T3, D-histidine 2-aminobutanoyltransferase (Staphylococcus aureus (strain Mu50 / ATCC 700699)); test: Binding affinity to N-terminal his6-tagged Staphylococcus aureus ATCC 700699 CntL assessed as change in enthalpy by ITC analysis
[8] = molecular target: T3, D-histidine 2-aminobutanoyltransferase (Staphylococcus aureus (strain Mu50 / ATCC 700699)); test: Induction of thermal stabilization of Staphylococcus aureus ATCC 700699 CntL assessed as change in melting temperature at 100 uM by fluorescence-based thermal shift assay
[9] = molecular target: T3, D-histidine 2-aminobutanoyltransferase (Staphylococcus aureus (strain Mu50 / ATCC 700699)); test: Inhibition of N-terminal his6-tagged Staphylococcus aureus ATCC 700699 CntL at 5 uM using SAM as substrate preincubated with compound for 10 mins followed by substrate addition and measured after 25 mins in presence of NADPH by microplate reader analysis relative to control; details: time 35.0 min
[10] = molecular target: T2, L-histidine 2-aminobutanoyltransferase (Pseudomonas aeruginosa); test: Binding affinity to N-terminal his6-tagged Pseudomonas aeruginosa CntL assessed as change in entropy by ITC analysis
[11] = molecular target: T3, D-histidine 2-aminobutanoyltransferase (Staphylococcus aureus (strain Mu50 / ATCC 700699)); test: Induction of thermal stabilization of Staphylococcus aureus ATCC 700699 CntL assessed as change in melting temperature by fluorescence-based thermal shift assay
[12] = molecular target: T2, L-histidine 2-aminobutanoyltransferase (Pseudomonas aeruginosa); test: Binding affinity to N-terminal his6-tagged Pseudomonas aeruginosa CntL assessed as change in gibbs free energy by ITC analysis
[13] = molecular target: T2, L-histidine 2-aminobutanoyltransferase (Pseudomonas aeruginosa); test: Induction of thermal stabilization of N-terminal his6-tagged Pseudomonas aeruginosa CntL assessed as increase in melting temperature at 500 uM by fluorescence-based thermal shift assay
[14] = molecular target: T3, D-histidine 2-aminobutanoyltransferase (Staphylococcus aureus (strain Mu50 / ATCC 700699)); test: Induction of thermal stabilization of Staphylococcus aureus ATCC 700699 CntL assessed as melting temperature in presence of L-His by fluorescence-based thermal shift assay
[15] = molecular target: T3, D-histidine 2-aminobutanoyltransferase (Staphylococcus aureus (strain Mu50 / ATCC 700699)); test: Induction of thermal stabilization of Staphylococcus aureus ATCC 700699 CntL assessed as melting temperature in presence of D-His by fluorescence-based thermal shift assay
[16] = molecular target: T3, D-histidine 2-aminobutanoyltransferase (Staphylococcus aureus (strain Mu50 / ATCC 700699)); test: Induction of thermal stabilization of Staphylococcus aureus ATCC 700699 CntL assessed as melting temperature by fluorescence-based thermal shift assay
[17] = molecular target: T3, D-histidine 2-aminobutanoyltransferase (Staphylococcus aureus (strain Mu50 / ATCC 700699)); test: Induction of thermal stabilization of Staphylococcus aureus ATCC 700699 CntL assessed as melting temperature in presence of xNA by fluorescence-based thermal shift assay
[18] = molecular target: T3, D-histidine 2-aminobutanoyltransferase (Staphylococcus aureus (strain Mu50 / ATCC 700699)); test: Induction of thermal stabilization of Staphylococcus aureus ATCC 700699 CntL assessed as change in melting temperature in presence of histidine by fluorescence-based thermal shift assay
[19] = molecular target: T3, D-histidine 2-aminobutanoyltransferase (Staphylococcus aureus (strain Mu50 / ATCC 700699)); test: Inhibition of N-terminal his6-tagged Staphylococcus aureus ATCC 700699 CntL assessed as reduction in intracellular iron level at 100 uM by ICP-MS analysis; format: cell-based
[20] = molecular target: T3, D-histidine 2-aminobutanoyltransferase (Staphylococcus aureus (strain Mu50 / ATCC 700699)); test: Inhibition of N-terminal his6-tagged Staphylococcus aureus ATCC 700699 CntL assessed as reduction in intracellular nickel ion level at 100 uM by ICP-MS analysis; format: cell-based
Staphylococcus aureus [21] = test: Antibacterial activity against Staphylococcus aureus […] assessed as effect on bacterial growth at 100 uM incubated for 12 hrs in presence of dCDM medium; format: functional, organism-based
Staphylococcus aureus [22] = test: Antibacterial activity against Staphylococcus aureus […] assessed as effect on bacterial growth at 100 uM incubated for 12 hrs in presence of chemically defined medium; format: functional, organism-based
[23] = molecular target: T3, D-histidine 2-aminobutanoyltransferase (Staphylococcus aureus (strain Mu50 / ATCC 700699)); test: Inhibition of N-terminal his6-tagged Staphylococcus aureus ATCC 700699 CntL assessed as reduction in intracellular cobalt ion level at 100 uM by ICP-MS analysis; format: cell-based
Staphylococcus aureus [24] = test: Antibacterial activity against Staphylococcus aureus […] assessed as effect on bacterial growth at 100 uM incubated for 12 hrs in presence of LB medium; format: functional, organism-based

Compound	IC50 [1] [nM]	deltaH [2] [kcal/mol]	-TdeltaS [3] [kcal/mol]	Kd [4] [nM]	Kd [5] [nM]	deltaG [6] [kcal/mol]	deltaH [7] [kcal/mol]	ΔTm [8] [°C]	inhibition [9] [%]	-TdeltaS [10] [kcal/mol]	ΔTm [11] [°C]	deltaG [12] [kcal/mol]	Activity [13]	further results
CSC[C@H]1O[C@@H](n2cnc3c(N)ncnc32)[C@H](O)[C@@H]1O [METHYLTHIOADENOSINE]	–	-6.63	16.4	15500	10900	-6.84	-23.3	–	–	0.078	–	-6.55	–	Tm [14]: 59 °C; Tm [15]: 59 °C; Tm [16]: 56.3 °C; Tm [17]: 59.3 °C; ΔTm [18]: 3.4 °C
Nc1ncnc2c1ncn2[C@@H]1O[C@H](CSCCCN[C@@H](Cc2c[nH]cn2)C(=O)O)[C@@H](O)[C@H]1O	120	-8.65	9.07	600	180	-9.2	-18.3	7.7	96	0.149	0.7	-8.48	Active	–
Nc1ncnc2c1ncn2[C@@H]1O[C@H](CSCCC(=O)N[C@@H](Cc2c[nH]cn2)C(=O)O)[C@@H](O)[C@H]1O	–	–	–	–	–	–	–	1.7	< 20	–	–	–	–	–
COc1nc(N)c2ncn([C@@H]3O[C@H](CSCCCN[C@@H](Cc4c[nH]cn4)C(=O)O)[C@@H](O)[C@H]3O)c2n1	–	–	–	–	–	–	–	–	–	–	4.7	–	–	–
Nc1ncnc2c1ncn2[C@@H]1O[C@H](CSCCCNC(=O)[C@H](N)Cc2c[nH]cn2)[C@@H](O)[C@H]1O	–	–	–	–	–	–	–	0.7	< 20	–	–	–	–	–

Further lines, with some results ahead:

IC50 [1] [nM]	deltaH [2] [kcal/mol]	-TdeltaS [3] [kcal/mol]	Kd [4] [nM]	Kd [5] [nM]	deltaG [6] [kcal/mol]	deltaH [7] [kcal/mol]	ΔTm [8] [°C]	inhibition [9] [%]	-TdeltaS [10] [kcal/mol]	ΔTm [11] [°C]	deltaG [12] [kcal/mol]	Activity [13]	Compound	further results
60	-4.25	7.72	220	41	-10.1	-17.8	8.4	92	-4.84	1	-9.1	Active	Nc1ncnc2c1ncn2[C@@H]1O[C@H](CSCCN[C@@H](Cc2c[nH]cn2)C(=O)O)[C@@H](O)[C@H]1O	–
~60	–	0.448	–	21	-10.5	-10.9	–	–	–	9.4	–	Active	Nc1nc(Cl)nc2c1ncn2[C@@H]1O[C@H](CSCCN[C@@H](Cc2c[nH]cn2)C(=O)O)[C@@H](O)[C@H]1O	inhibition [19]: Active; inhibition [20]: Active; Activity (Staphylococcus aureus [21]): inactive; Activity (Staphylococcus aureus [22]): inactive; inhibition [23]: Active; Activity (Staphylococcus aureus [24]): inactive
–	–	–	–	–	–	–	–	–	–	8.4	–	Active	Nc1nc(Cl)nc2c1ncn2[C@@H]1O[C@H](CSCCCNC(Cc2c[nH]cn2)C(=O)O)[C@@H](O)[C@H]1O (single isomer, unassigned)	–
